Results taken from paper PMC8230565, “Bisavenathramide Analogues as Nrf2 Inductors and Neuroprotectors in In Vitro Models of Oxidative Stress and Hyperphosphorylation” (Antioxidants, 2021).

Columns and labels:
[1] = test system: SH-SY5Y cells; assay: Neuroprotection against rotenone/oligomycin A in SH-SY5Y cells (MTT); type: cell-based; conditions: Homo sapiens, 24 h, 1 µM compound, rotenone 30 µM + oligomycin A 10 µM, read-out: % Neuroprotection ± SEM at 1 µM (rotenone/oligomycin A)
Protocol: To evaluate the compounds for their neuroprotective effect in an oxidative stress model, we selected the rotenone (30 μM) and oligomycin A (10 μM) (R/O) cocktail, which disturbs the flow of electrons in the mitochondrial respiratory chain. Similarly, SH-SY5Y cells were preincubated with compounds 3 at 1 μM for 24 h. Then, they were co-incubated in the presence of R/O for a further 24 h, evaluating cell viability by the MTT reduction method.
Thus, the R/O combination constitutes a good model of oxidative stress and neurodegeneration with a mitochondrial origin, and has been broadly employed to evaluate potential hit compounds for the treatment of neurodegenerative diseases. Furthermore, treatment of laboratory animals with rotenone is known to induce many features associated to Parkinson’s disease, such as selective nigrostriatal dopaminergic degeneration and the appearance of α-synuclein cytoplasmic inclusions, which are associated with oxidative damage.

[2] = molecular target: AChE (Electrophorus electricus) (Electrophorus electricus, UniProt O42275); assay: Acetylcholinesterase inhibition (Ellman's method); type: biochemical; conditions: for inhibition at 10 µM: 10 μM compound, read-out: % Inhibition of EeAChE at 10 μM
AChE (Electrophorus electricus), sequence (O42275 24-633): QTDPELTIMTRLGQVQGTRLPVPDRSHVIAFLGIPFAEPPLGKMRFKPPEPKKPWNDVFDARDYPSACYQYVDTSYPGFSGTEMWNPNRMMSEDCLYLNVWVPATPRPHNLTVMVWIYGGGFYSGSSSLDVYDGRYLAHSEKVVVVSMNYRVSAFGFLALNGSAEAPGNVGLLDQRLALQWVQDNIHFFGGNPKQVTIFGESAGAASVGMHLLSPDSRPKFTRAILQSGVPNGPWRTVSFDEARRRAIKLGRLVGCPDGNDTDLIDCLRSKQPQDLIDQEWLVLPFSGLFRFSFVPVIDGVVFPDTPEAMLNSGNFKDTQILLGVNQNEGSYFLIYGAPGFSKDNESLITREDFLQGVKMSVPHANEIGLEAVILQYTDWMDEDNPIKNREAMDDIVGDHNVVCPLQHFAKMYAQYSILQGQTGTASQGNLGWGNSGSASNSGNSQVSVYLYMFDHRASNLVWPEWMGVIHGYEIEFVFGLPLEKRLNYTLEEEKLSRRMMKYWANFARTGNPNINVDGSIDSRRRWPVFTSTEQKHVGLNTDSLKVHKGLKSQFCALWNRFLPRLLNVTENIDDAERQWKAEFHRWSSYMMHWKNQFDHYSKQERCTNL
Protocol: Ellman’s method was employed to determine the inhibitory capacity of the compounds against AChE (Electrophorus electricus). The compounds were studied at 10 μM concentration, at room temperature, using PBS (0.1 M, pH 8) as solvent. Transparent 48-well microplates (COSTAR 3548) were used and, in each one, a blank was included. The compounds were incubated with the enzyme (0.09 U/mL) and with DTNB (0.35 mM) for 10 min. Afterwards, the enzyme substrate acetylthiocholine (0.35 mM) was added to a final volume of 1 mL. The microplate was incubated at room temperature for 15 min. Then, the absorbance was measured at 420 nm using the microplate reader FluoStar Optima (BMG Labtech, Ortenberg, Baden-Württemberg, Germany). The enzymatic activity was calculated by subtracting the blank absorbance from the sample absorbance and dividing the result by the absorbance of the maximum activity subtracted from blank absorbance, and the result was multiplied by one hundred to give a percentage. The inhibitory activity was calculated by subtracting the enzymatic activity from one hundred. Selected compounds were assayed at 0.3, 1, 3, 10, and 30 μM concentrations to obtain inhibition curves. The results were plotted versus concentration to obtain IC50 values through sigmoidal non-lineal adjustment. All the experiments were performed at least in triplicate.
Bisavenanthramide B-6 and heliotropamide A have been identified as acetylcholinesterase inhibitors. This precedent, coupled with our interest in the potential characterization of our compounds as multitarget-directed ligands, led us to investigate them as inhibitors of this enzyme, an important anti-Alzheimer target.

[3] = test system: SH-SY5Y cells; assay: Neuroprotection against okadaic acid in SH-SY5Y cells (MTT); type: cell-based; conditions: Homo sapiens, SH-SY5Y, 18 h; 1 µM compound; okadaic acid 20 nM; read-out: % Neuroprotection ± SEM at 1 µM (okadaic acid)
Protocol: Neuroprotection studies against tau hyperphosphorylation exerted by okadaic acid (OA) were evaluated using the SH-SY5Y cell line as follows. […] After 18 h, cell viability was addressed by the MTT reduction method. MTT (5 mg/mL, 10 μL/well) was added and incubated for 2 h. Then, the medium was removed and the purple formazan crystals formed by viable cells were dissolved using 100 μL of DMSO. A FluoStar Optima spectrophotometer (BMG Labtech, Ortenberg, Baden-Württemberg, Germany) was used to measure the absorbance at 570 nm.
Okadaic acid is a potent inhibitor of protein phosphatase 2A (PP2A), thereby inducing tau hyperphosphorylation. For this reason, it can be employed as a model of neurodegenerative-disease-connected tau hyperphosphorylation, a well-known feature of Alzheimer’s disease, but present also in other NDDs, collectively known as tauopathies and characterized by the pathological aggregation of hyperphosphorylated tau in neurofibrillary tangles. […] Tau hyperphosphorylation is connected to oxidative stress, which activates p38 and deactivates calcineurin, a phosphatase involved in tau dephosphorylation by increasing RCAN1, its natural repressor [34, 35]. Indeed, hyperphosphorylation and oxidative stress have been proposed to generate a vicious circle that is critical to the advance of neurodegenerative tauopathies.

[4] = DPPH radical scavenging assay; conditions: for DPPH Scavenging at 0.1 mM, %: 0.1 mM compound; for DPPH Scavenging at 1 mM, %: 1 mM compound
Protocol: The direct antioxidant effects of compounds 3 were investigated by studying their radical-scavenging effect on the 2,2-diphenyl-1-picrylhydrazyl free radical (DPPH^•). Thus, a 100 μL volume of a methanol solution of each compound was added to 200 μL of 100 μM methanolic DPPH^•, and the solution was kept in the dark at 37 °C for 30 min in a 96-well microliter plate. After this incubation, the absorption at 490 nm of each solution was measured with a microplate reader in order to quantitate its decrease. A blank reading was also taken to calculate the amount of remaining DPPH^•. The radical-scavenging activity exerted by compounds 3 was determined by comparison with a 10 μL of MeOH-treated blank group. Ascorbic acid, a well-known antioxidant acting as a radical scavenger, was used as reference. All samples were analyzed in triplicate. Percent inhibition of the DPPH^• radical was calculated using the equation shown below, where AbsCtrl is the absorbance of the blank group and Abss is the absorbance of the samples containing compounds 3. For each compound showing a percentage of inhibition above 60%, the IC50 value was determined using a dose–response curve obtained from measurements corresponding to at least six concentrations. %Scavenger=AbsCtrl−AbsS/AbsCtrl×100
The radical scavenging activity of all compounds was first studied by the DPPH assay, which measures the ability of antioxidant compounds to donate a hydrogen atom to the violet 2,2-diphenyl-1-picrylhydrazyl radical and transform it into a nonradical species. Thus, it is generally considered to belong to the hydrogen atom transfer (HAT) category of methods for measurement of antioxidant activity.

[5] = test system: neuroblastoma SHSY5Y cells; assay: Cytotoxicity in SHSY5Y cells (MTT reduction); type: cell-based; conditions: for LD50: MTT reduction
Protocol: SH-SY5Y cells (ECACC 94030304, Porton Down, Salisbury, UK), from passages between 4 and 16 after defreezing, were maintained in a MEM/F12 containing […] nonessential amino acids and supplemented with 10% fetal bovine serum (FBS), glutamine 1 mM, 50 units/mL of penicillin, and 50 μg/mL of streptomycin (GIBCO, Madrid, Spain). Cells were harvested in a […] flask and incubated at 37 °C with wet atmosphere and 5% CO2, carrying out passages 1:4 twice a week. For neuroprotection experiments, cells were seeded in 96-well plates at a density of 60,000 cells/well. For the toxicity experiments, cells were treated with the compounds under assay before reaching confluence, in MEM/F12 with 1% FBS.
Due to their presumed electrophilicity, the neurotoxicity of our compounds was investigated by investigating their influence on cell viability in the neuroblastoma SHSY5Y cell line prior to other studies in cell cultures. […] It is relevant to note that, despite their reputation for toxicity, interest in covalent drugs has undergone a renaissance, and about 30% of the recently marketed drugs belong to this class.

SMILES | % neuroprotection against rotenone/oligomycin A toxicity at 1 µM [1] [%] | inhibition at 10 µM [2] [%] | % neuroprotection against okadaic acid at 1 µM [3] [%] | DPPH Scavenging at 0.1 mM, % [4] [%] | DPPH Scavenging at 1 mM, % [4] [%] | toxicity assessment [5] | LD50 [5] [µM] | IC50 ([2]; n in brackets, read-out: IC50 (EeAChE)) [µM]
COC(=O)C1=C(C)N(Cc2ccccc2)C(=O)/C1=C\c1ccccc1 [Compound 3a, Methyl (Z)-1-Benzyl-4-benzylidene-2-methyl-5-oxo-4,5-dihydro-1H-pyrrole-3-carboxylate] | 44.3 ± 13.6 | 27.4 | 68 ± 22 | 9.7 ± 3.8 | 47.5 ± 4.9 | too toxic | 63.7 ± 12.8 | –
COC(=O)C1=C(C)N(Cc2ccccc2)C(=O)/C1=C\c1ccc(OC)cc1 [Compound 3b, Methyl (Z)-1-Benzyl-4-(4-methoxybenzylidene)-2-methyl-5-oxo-4,5-dihydro-1H-pyrrole-3-carboxylate] | 68 ± 31.5 | 36.7 | 54.1 ± 14.3 | 6.5 ± 4.5 | 27.2 ± 6.4 | – | >100 | 29.7 ± 3
COC(=O)C1=C(C)N(Cc2ccccc2)C(=O)/C1=C\c1ccc(Cl)cc1 [Compound 3c, Methyl (Z)-1-Benzyl-4-(4-chlorobenzylidene)-2-methyl-5-oxo-4,5-dihydro-1H-pyrrole-3-carboxylate] | > 90 | 33.5 | 52.8 ± 9.96 | 3.7 ± 3.8 | 36.6 ± 3.4 | too toxic | – | –
COC(=O)C1=C(C)N(CCc2ccccc2)C(=O)/C1=C\c1ccc2c(c1)OCO2 [Compound 3d, Methyl (Z)-4-(Benzo[d](1,3)dioxol-5-ylmethylene)-2-methyl-5-oxo-1-phenethyl-4,5-dihydro-1H-pyrrole-3-carboxylate] | 49.8 ± 9.46 | 25.2 | 52.7 ± 17.2 | 40.5 ± 5.0 | 41.6 ± 4.1 | – | >100 | –
COC(=O)C1=C(C)N(CCc2ccccc2)C(=O)/C1=C\c1ccc(OC)cc1OC [Compound 3e, Methyl (Z)-4-(2,4-Dimethoxybenzylidene)-2-methyl-5-oxo-1-phenethyl-4,5-dihydro-1H-pyrrole-3-carboxylate] | 50.3 ± 16.3 | 24.3 | 62.8 ± 8 | 6.33 ± 4.2 | 27.0 ± 2.6 | – | >100 | –
COC(=O)C1=C(C)N(CCc2ccccc2)C(=O)/C1=C\c1cc(OC)c(OC)cc1OC [Compound 3f, Methyl (Z)-2-Methyl-5-oxo-1-phenethyl-4-(2,4,5-trimethoxybenzylidene)-4,5-dihydro-1H-pyrrole-3-carboxylate] | 51 ± 16.9 | 29.3 | 48.3 ± 11 | 9.7 ± 0.6 | 9.7 ± 2.2 | – | >100 | –
COC(=O)C1=C(C)N(CCc2ccccc2)C(=O)/C1=C\c1cc(OC)c(OC)c(OC)c1 [Compound 3g, Methyl (Z)-2-Methyl-5-oxo-1-phenethyl-4-(3,4,5-trimethoxybenzylidene)-4,5-dihydro-1H-pyrrole-3-carboxylate] | 74.5 ± 7.19 | 11.6 | 65.7 ± 29.1 | 8.1 ± 4.7 | 46.5 ± 2.3 | – | >100 | –
